Results taken from patent publication US9751881B2, “Inhibitors of the renal outer medullary potassium channel” (Merck Sharp & Dohme Corp., priority 2013, dated 2017).

Biological target: hROMK (hKir1.1) (Homo sapiens (Human), UniProt P48048)
Test: Thallium Flux Assay (ROMK channel functional thallium flux, FLIPR-Tetra)
Format: cell-based
Settings: HEK293 cells stably expressing hROMK (hKir1.1); unit not given in Table 4 (IC50 potencies less than 1 μM); read-out: ROMK TI IC50
Procedure, shortened: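 HEK293 cells stably expressing hROMK, FluxOR dye-loaded 90 min, then compound 30 min at room temperature. Normalised to 3 μM reference ROMK inhibitor as % fluorescence change.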

Chain of hROMK (hKir1.1) (P48048 whole entry): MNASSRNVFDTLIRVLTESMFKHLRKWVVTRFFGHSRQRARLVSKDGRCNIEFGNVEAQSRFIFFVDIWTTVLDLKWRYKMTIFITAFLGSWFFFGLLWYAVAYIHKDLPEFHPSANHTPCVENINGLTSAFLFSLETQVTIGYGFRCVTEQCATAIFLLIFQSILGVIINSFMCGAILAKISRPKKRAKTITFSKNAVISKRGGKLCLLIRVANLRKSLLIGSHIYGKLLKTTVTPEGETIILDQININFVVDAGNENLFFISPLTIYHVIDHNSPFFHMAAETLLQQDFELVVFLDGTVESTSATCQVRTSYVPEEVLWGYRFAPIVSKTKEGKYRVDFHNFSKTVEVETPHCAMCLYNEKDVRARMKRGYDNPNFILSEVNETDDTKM

Compound | IC50 [nM]
Cc1c([C@@H](O)CN2CCC3(CC2)CCN(c2ccnc(-c4ccoc4)n2)C3=O)ccc2c1COC2=O [Example 115, (R)-2-(2-(furan-3-yl)pyrimidin-4-yl)-8-(2-hydroxy-2-(4-methyl-1-oxo-1,3-dihydroisobenzofuran-5-yl)ethyl)-2,8-diazaspiro[4.5]decan-1-one] | 286
Cc1c([C@@H](O)CN2CCC3(CC2)CC(=O)N(c2ccc(C#N)cc2)C3)ccc2c1COC2=O [Example 14, (R)-4-(8-(2-Hydroxy-2-(4-methyl-1-oxo-1,3-dihydroisobenzofuran-5-yl)ethyl)-3-oxo-2,8-diazaspiro[4.5]decan-2-yl)benzonitrile] | 15
Cc1c([C@@H](O)CN2CCC3(CC2)CCN(c2ccc(S(C)(=O)=O)nc2)C3=O)ccc2c1COC2=O [Example 55, (R)-8-(2-Hydroxy-2-(4-methyl-1-oxo-1,3-dihydroisobenzofuran-5-yl)ethyl)-2-(6-(methylsulfonyl)pyridin-3-yl)-2,8-diazaspiro[4.5]decan-1-one] | 85.1
Cc1c([C@@H](O)CN2CCC3(CC2)CCN(c2cnc(S(C)(=O)=O)cn2)C3=O)ccc2c1COC2=O [Example 42, (R)-8-(2-Hydroxy-2-(4-methyl-1-oxo-1,3-dihydroisobenzofuran-5-yl)ethyl)-2-(5-(methylsulfonyl)pyrazin-2-yl)-2,8-diazaspiro[4.5]decan-1-one] | 216
Cc1c([C@@H](O)CN2CCC3(CC2)CN(c2ccc(C#N)cn2)CCO3)ccc2c1COC2=O [Example 101, (R)-6-(9-(2-Hydroxy-2-(4-methyl-1-oxo-1,3-dihydroisobenzofuran-5-yl)ethyl)-1-oxa-4,9-diazaspiro[5.5]undecan-4-yl)nicotinonitrile] | 39.6
COc1cc(N2CCC3(CCN(C[C@H](O)c4ccc5c(c4C)COC5=O)CC3)C2=O)ncc1C#N [Example 58, (R)-6-(8-(2-Hydroxy-2-(4-methyl-1-oxo-1,3-dihydroisobenzofuran-5-yl)ethyl)-1-oxo-2,8-diazaspiro[4.5]decan-2-yl)-4-methoxynicotinonitrile] | 49.4
CC1=CS(=O)(=O)c2ccc(N3CCC4(CCN(C[C@H](O)c5ccc6c(c5C)COC6=O)CC4)C3)cc21 [Example 88] | 353
